From ChEMBL document CHEMBL3885861, “Open TG-GATES”

Species on record: Rattus norvegicus
Assay: Open TG-GATES - Regimen: Single
Type: toxicity, organism-based, Sprague-Dawley
Parameters: regimen Single, gender Male, age 6 weeks
Settings: in vivo, po, 100 mg/kg, route gavage, dose level Low; for APTT / Bas / Eos / Fbg / Hb / Ht / Lym / MCH / MCHC / MCV / Mono / Neu / PT / Plat / RBC / Ret / WBC: tissue Blood; for KIDNEY_L / KIDNEY_R / KIDNEY_TOTAL: tissue Kidney; for LIVER: tissue Liver; for A/G / ALP / ALT / AST / BUN / CRE / Ca / Cl / DBIL / GLC / IP / K / LDH / Na / PL / RALB / TBIL / TC / TG / TP / gamma-GTP: tissue Plasma

O=C(O)COc1nn(Cc2ccccc2)c2ccccc12 [BENDAZAC]
TERMINAL_BW (3 h): 207.2 g | APTT (3 h): 16.8 s | Bas (3 h): 0% | Eos (3 h): 1% | Fbg (3 h): 209.6 mg/dL | Hb (3 h): 14 g/dL | Ht (3 h): 42.1% | Lym (3 h): 80.8% | MCH (3 h): 21.8 pg | MCHC (3 h): 33.4% | MCV (3 h): 65.2 fL | Mono (3 h): 7.2% | Neu (3 h): 11.6% | PT (3 h): 11.3 s | Plat (3 h): 131.9 x10_4/uL | RBC (3 h): 644.8 x10_4/ul | Ret (3 h): 9.1% | WBC (3 h): 111.8 x10_2/uL | KIDNEY_L (3 h): 1 g | KIDNEY_R (3 h): 1 g | KIDNEY_TOTAL (3 h): 1.9 g | LIVER (3 h): 9.9 g | A/G (3 h): 2.1 | ALP (3 h): 1620.8 IU/L | ALT (3 h): 35.8 IU/L | AST (3 h): 68 IU/L | BUN (3 h): 12.8 mg/dL | CRE (3 h): 0.6 mg/dL | Ca (3 h): 10.9 mg/dL | Cl (3 h): 102 meq/L | DBIL (3 h): 0.008 mg/dL | GLC (3 h): 196.8 mg/dL | IP (3 h): 9.2 mg/dL | K (3 h): 4.6 meq/L | LDH (3 h): 93.2 IU/L | Na (3 h): 140.2 meq/L | PL (3 h): 130.2 mg/dL | RALB (3 h): 3.7 g/dL | TBIL (3 h): 1.4 mg/dL | TC (3 h): 73.6 mg/dL | TG (3 h): 56.2 mg/dL | TP (3 h): 5.4 g/dL | gamma-GTP (3 h): 1.4 IU/L | TERMINAL_BW (6 h): 207.8 g | APTT (6 h): 16.4 s | Bas (6 h): 0% | Eos (6 h): 1% | Fbg (6 h): 202.2 mg/dL | Hb (6 h): 13.9 g/dL | Ht (6 h): 41.6% | Lym (6 h): 79.4% | MCH (6 h): 21.6 pg | MCHC (6 h): 33.4% | MCV (6 h): 64.9 fL | Mono (6 h): 8.8% | Neu (6 h): 11.2% | PT (6 h): 12 s | Plat (6 h): 113.2 x10_4/uL | RBC (6 h): 641.8 x10_4/ul | Ret (6 h): 10.5% | WBC (6 h): 96.2 x10_2/uL | KIDNEY_L (6 h): 1 g | KIDNEY_R (6 h): 1 g | KIDNEY_TOTAL (6 h): 2 g | LIVER (6 h): 9.2 g | A/G (6 h): 2.3 | ALP (6 h): 1175.6 IU/L | ALT (6 h): 35.2 IU/L | AST (6 h): 66 IU/L | BUN (6 h): 13 mg/dL | CRE (6 h): 0.6 mg/dL | Ca (6 h): 10.8 mg/dL | Cl (6 h): 103.4 meq/L | DBIL (6 h): 0.09 mg/dL | GLC (6 h): 183.8 mg/dL | IP (6 h): 10.7 mg/dL | K (6 h): 4.8 meq/L | LDH (6 h): 90.6 IU/L | Na (6 h): 140.2 meq/L | PL (6 h): 126 mg/dL | RALB (6 h): 3.7 g/dL | TBIL (6 h): 1.2 mg/dL | TC (6 h): 70.8 mg/dL | TG (6 h): 41.4 mg/dL | TP (6 h): 5.3 g/dL | gamma-GTP (6 h): 1.8 IU/L
